Test results: publication PMC3076311 (Nature structural & molecular biology, 2011)

Biological target: TcdB CPD E753R R745E (Clostridioides difficile, UniProt P18177, E753R/R745E)
Format: biochemical, Clostridium difficile

inositol hexakisphosphate [InsP6]
factor by which activity is decreased relative to wildtype TcdB CPD: 23
